Reference: patent publication US9255295B2, “Method for evaluating the sensitizing potential of a test compound” (IMMUNOSEARCH, priority 2010, dated 2016)
Read-outs that look alike come from different tables or passages of the source.

System: ARE gene family (AKR1B10, AKR1C1, AKR1C2, CYP1B1, FTH1P, FTL, G6PD, GCLM, NQO2, SLC7A11, TXNRD1, UGT1A1, UGT1A9, YWHAZ, CD36, CYP1A1, GCLC, HMOX1, NQO1, PSME2 …)

Nc1ccccc1O [2-aminophenol] was tested, and the “AHR expression compared to control” value (0.1%) was 1.0, the “AHR grade (NUMBER OF GENES)” value (0.1%) was 0 (if this expression is lower, the grade is 0) and the “AKR1B10 expression compared to control” value (0.1%) was 0.8. For the same compound, the “AKR1B10 grade (NUMBER OF GENES)” value (0.1%) was 0 (if this expression is lower, the grade is 0), the “AKR1C1 expression compared to control” value (0.1%) was 1.2 and the “AKR1C1 grade (NUMBER OF GENES)” value (0.1%) was 0 (if this expression is lower, the grade is 0). The “AKR1C2 expression compared to control” value (0.1%) was 1.1, the “AKR1C2 grade (NUMBER OF GENES)” value (0.1%) was 0 (if this expression is lower, the grade is 0) and the “ARE >1.3 (NUMBER OF GENES)” value (0.1%) was 5. The “CD36 expression compared to control” value (0.1%) was 0.9, the “CD36 grade (NUMBER OF GENES)” value (0.1%) was 0 (if this expression is lower, the grade is 0) and the “CYP1A1 expression compared to control” value (0.1%) was 7.1. For the same compound, the “CYP1A1 grade (NUMBER OF GENES)” value (0.1%) was 1 (If the expression is greater than 1.3 compared to the control, a grade of 11s given), the “CYP1B1 expression compared to control” value (0.1%) was 5.3 and the “CYP1B1 grade (NUMBER OF GENES)” value (0.1%) was 1 (If the expression is greater than 1.3 compared to the control, a grade of 11s given). The “FTH1P expression compared to control” value (0.1%) was 0.9, the “FTH1P grade (NUMBER OF GENES)” value (0.1%) was 0 (if this expression is lower, the grade is 0) and the “FTL expression compared to control” value (0.1%) was 1.0. The “FTL grade (NUMBER OF GENES)” value (0.1%) was 0 (if this expression is lower, the grade is 0), the “GCLC expression compared to control” value (0.1%) was 1.1 and the “GCLC grade (NUMBER OF GENES)” value (0.1%) was 0 (if this expression is lower, the grade is 0). For the same compound, the “GCLM expression compared to control” value (0.1%) was 2.1, the “GCLM grade (NUMBER OF GENES)” value (0.1%) was 1 (If the expression is greater than 1.3 compared to the control, a grade of 11s given) and the “HMOX1 expression compared to control” value (0.1%) was 1.1. For the same compound, the “HMOX1 grade (NUMBER OF GENES)” value (0.1%) was 0 (if this expression is lower, the grade is 0), the “NQO1 expression compared to control” value (0.1%) was 0.9 and the “NQO1 grade (NUMBER OF GENES)” value (0.1%) was 0 (if this expression is lower, the grade is 0). For the same compound, the “NQO2 expression compared to control” value (0.1%) was 1.0, the “NQO2 grade (NUMBER OF GENES)” value (0.1%) was 0 (if this expression is lower, the grade is 0) and the “S100A8 expression compared to control” value (0.1%) was 1.4. For the same compound, the “S100A8 grade (NUMBER OF GENES)” value (0.1%) was 1 (If the expression is greater than 1.3 compared to the control, a grade of 11s given), the “SLC7A11 expression compared to control” value (0.1%) was 2.1 and the “SLC7A11 grade (NUMBER OF GENES)” value (0.1%) was 1 (If the expression is greater than 1.3 compared to the control, a grade of 11s given). For the same compound, the “TOTAL ARE (NUMBER OF GENES)” value (0.1%) was 5, the “TXNRD1 expression compared to control” value (0.1%) was 3.0 and the “TXNRD1 grade (NUMBER OF GENES)” value (0.1%) was 1 (If the expression is greater than 1.3 compared to the control, a grade of 11s given). The “UGT1A1 expression compared to control” value (0.1%) was 0.9, the “UGT1A1 grade (NUMBER OF GENES)” value (0.1%) was 0 (if this expression is lower, the grade is 0) and the “UGT1A9 expression compared to control” value (0.1%) was 1.1. For the same compound, the “UGT1A9 grade (NUMBER OF GENES)” value (0.1%) was 0 (if this expression is lower, the grade is 0), the “AHR expression compared to control” value (1%) was 0.6 and the “AHR grade (NUMBER OF GENES)” value (1%) was 0 (if this expression is lower, the grade is 0). For the same compound, the “AKR1B10 expression compared to control” value (1%) was 0.9, the “AKR1B10 grade (NUMBER OF GENES)” value (1%) was 0 (if this expression is lower, the grade is 0) and the “AKR1C1 expression compared to control” value (1%) was 4.3. The “AKR1C1 grade (NUMBER OF GENES)” value (1%) was 1 (If the expression is greater than 1.3 compared to the control, a grade of 11s given), the “AKR1C2 expression compared to control” value (1%) was 1.2 and the “AKR1C2 grade (NUMBER OF GENES)” value (1%) was 0 (if this expression is lower, the grade is 0). The “ARE >1.3 (NUMBER OF GENES)” value (1%) was 10, the “CD36 expression compared to control” value (1%) was 0.6 and the “CD36 grade (NUMBER OF GENES)” value (1%) was 0 (if this expression is lower, the grade is 0). The “CYP1A1 expression compared to control” value (1%) was 14.6, the “CYP1A1 grade (NUMBER OF GENES)” value (1%) was 1 (If the expression is greater than 1.3 compared to the control, a grade of 11s given) and the “CYP1B1 expression compared to control” value (1%) was 15.6. The “CYP1B1 grade (NUMBER OF GENES)” value (1%) was 1 (If the expression is greater than 1.3 compared to the control, a grade of 11s given), the “FTH1P expression compared to control” value (1%) was 1.2 and the “FTH1P grade (NUMBER OF GENES)” value (1%) was 0 (if this expression is lower, the grade is 0). For the same compound, the “FTL expression compared to control” value (1%) was 2.1, the “FTL grade (NUMBER OF GENES)” value (1%) was 1 (If the expression is greater than 1.3 compared to the control, a grade of 11s given) and the “GCLC expression compared to control” value (1%) was 2.2. The “GCLC grade (NUMBER OF GENES)” value (1%) was 1 (If the expression is greater than 1.3 compared to the control, a grade of 11s given), the “GCLM expression compared to control” value (1%) was 3.5 and the “GCLM grade (NUMBER OF GENES)” value (1%) was 1 (If the expression is greater than 1.3 compared to the control, a grade of 11s given). For the same compound, the “HMOX1 expression compared to control” value (1%) was 1.4, the “HMOX1 grade (NUMBER OF GENES)” value (1%) was 1 (If the expression is greater than 1.3 compared to the control, a grade of 11s given) and the “NQO1 expression compared to control” value (1%) was 1.1. The “NQO1 grade (NUMBER OF GENES)” value (1%) was 0 (if this expression is lower, the grade is 0), the “NQO2 expression compared to control” value (1%) was 1.1 and the “NQO2 grade (NUMBER OF GENES)” value (1%) was 0 (if this expression is lower, the grade is 0). The “S100A8 expression compared to control” value (1%) was 1.2, the “S100A8 grade (NUMBER OF GENES)” value (1%) was 0 (if this expression is lower, the grade is 0) and the “SLC7A11 expression compared to control” value (1%) was 3.2. The “SLC7A11 grade (NUMBER OF GENES)” value (1%) was 1 (If the expression is greater than 1.3 compared to the control, a grade of 11s given), the “TOTAL ARE (NUMBER OF GENES)” value (1%) was 10 and the “TXNRD1 expression compared to control” value (1%) was 4.8. For the same compound, the “TXNRD1 grade (NUMBER OF GENES)” value (1%) was 1 (If the expression is greater than 1.3 compared to the control, a grade of 11s given), the “UGT1A1 expression compared to control” value (1%) was 1.6 and the “UGT1A1 grade (NUMBER OF GENES)” value (1%) was 1 (If the expression is greater than 1.3 compared to the control, a grade of 11s given). The “UGT1A9 expression compared to control” value (1%) was 1.0, the “UGT1A9 grade (NUMBER OF GENES)” value (1%) was 0 (if this expression is lower, the grade is 0) and the “AHR expression compared to control” value (10%) was 0.7. For the same compound, the “AHR grade (NUMBER OF GENES)” value (10%) was 0 (if this expression is lower, the grade is 0), the “AKR1B10 expression compared to control” value (10%) was 1.1 and the “AKR1B10 grade (NUMBER OF GENES)” value (10%) was 0 (if this expression is lower, the grade is 0). For the same compound, the “AKR1C1 expression compared to control” value (10%) was 9.3, the “AKR1C1 grade (NUMBER OF GENES)” value (10%) was 1 (If the expression is greater than 1.3 compared to the control, a grade of 11s given) and the “AKR1C2 expression compared to control” value (10%) was 3.4. The “AKR1C2 grade (NUMBER OF GENES)” value (10%) was 1 (If the expression is greater than 1.3 compared to the control, a grade of 11s given), the “ARE >1.3 (NUMBER OF GENES)” value (10%) was 14 and the “CD36 expression compared to control” value (10%) was 0.5. For the same compound, the “CD36 grade (NUMBER OF GENES)” value (10%) was 0 (if this expression is lower, the grade is 0) and the “CYP1A1 expression compared to control” value (10%) was 122.0.
